Measurements: paper PMC8634709, “Neuroprotective Potential of Tamarillo (Cyphomandra betacea) Epicarp Extracts Obtained by Sustainable Extraction Process” (Frontiers in Nutrition, 2021)
Marks after values point to notes of the source that are not given here.

Tests used:
Conditions in all cases: mean ± SD (n = 3)
[1] = ABTS radical scavenging assay
Protocol: ABTS^·+ radical scavenging assay was performed according to Re et al. ([32]), with modifications. TE at six different concentrations of each sample [from 2.9 to 29 μg/ml EtOH/H2O (1:1, v/v)] was used, giving a linear response between 20 and 80% of the control absorbance. All the measurements were performed in triplicate. Equation (3) represents the percentage of ABTS^·+ inhibition due to TE extracts and Trolox compared with the ABTS control.
(3) %Inh=AABTS control−(Asample−Asample blank)/AABTS control x 100
where A ABTScontrol is absorbance of radical at t = 0 min; Asample, represents the mean of absorbance readings of TE samples, and ASampleblank is the absorbance of the sample without ABTS. The capacity of free radical scavenging was expressed by IC50 value, and the results represent the mean inhibitory concentration (in μg/ml) of TE against ABTS^·+ radical.

[2] = RNS scavenging capacity (NO radical scavenging, Griess reaction)
Protocol: Reactive nitrogen species scavenging capacity was measured following the NO^· radical scavenging assay according to Ho et al. ([34]) and based on the Griess reaction. […] Each measurement was carried out in triplicate, and ascorbic acid and rosemary extract were used as chemical and natural positive controls, respectively. The NO scavenging capacity of the extract was expressed through inhibition % calculated as described in Equation (3).

[3] = ROS scavenging capacity (ORAC method)
Protocol: In this case, a concentration range of extract from 0.62 to 6.2 μg/ml in EtOH/H2O (1:9, v/v) was measured. […] The measurements were carried out in triplicate.
(4) %Inh=AUCControl−AUCsample/AUCcontrol x 100
AUC was calculated by means of Equation (5).
where f0 and fi are fluorescence at t = 0 and every 5 min, respectively.

SMILES	ABTS IC50 [1]	RNS IC50 [2]	ROS (ORAC) IC50 [3]
O=C1O[C@H]([C@@H](O)CO)C(O)=C1O [Ascorbic acid]	25.000 ± 0.30^f μg/mL extract	1100.901 ± 3.96^c μg/ml	
Cc1c(C)c2c(c(C)c1O)CCC(C)(C(=O)O)O2 (racemic) [Trolox, (±)-6-hydroxy-2,5,7,8-tetramethylchromane-2-carboxylic acid]	2.500 ± 0.02^a μg/mL extract		1.290 ± 0.09^a μg/ml
